Here are results for 22 molecules from ChEMBL document CHEMBL4371049, “Semi-synthesis and anti-tumor activity of novel 25-OCH3-PPD derivatives incorporating aromatic moiety” (Bioorg Med Chem Lett, 2019).

Some results are limits rather than exact numbers.

Common to all, as to assay type: functional, cell-based
The test system of one test is BGC-823. The test can be described thus: Antiproliferative activity against human BGC823 cells after 48 hrs by MTT assay. The note with it: BGC-823, 48 h.
In another test the test system is MCF7. The test can be described thus: Antiproliferative activity against human MCF7 cells after 48 hrs by MTT assay. The settings on record: MCF7, 48 h.
The subject of the next test is DU-145. The test is described as follows: Antiproliferative activity against human DU145 cells after 48 hrs by MTT assay. The note with it: DU-145, 48 h. A general note: Formazan colour is commonly taken as a measure of viable cells.
Another test relates to PC-3. The test is described as follows: Antiproliferative activity against human PC3 cells after 48 hrs by MTT assay. The settings on record: PC-3, 48 h.
Another test deals with HepG2. The test is described as follows: Antiproliferative activity against human HepG2 cells after 48 hrs by MTT assay. The note with it: HepG2, 48 h.

On to `COC(C)(C)CCC[C@@](C)(O)[C@H]1CC[C@]2(C)[C@@H]1[C@H](O)C[C@@H]1[C@@]3(C)CC[C@H](OC(=O)/C=C/c4ccc(Cl)cc4)C(C)(C)[C@@H]3CC[C@]12C`, for which the IC50 with BGC-823 stood at 25.8 µM; in the test with MCF7, 20.8 µM; in the test with DU-145 it was 33.1 µM; in the test on PC-3, 23.5 µM; with HepG2, 26.7 µM.

On to `COC(C)(C)CCC[C@@](C)(O)[C@H]1CC[C@]2(C)[C@@H]1[C@H](OC(=O)c1ccc(Cl)cc1)C[C@@H]1[C@@]3(C)CC[C@H](OC(=O)c4ccc(Cl)cc4)C(C)(C)[C@@H]3CC[C@]12C`, for which the IC50 is greater than 50 µM in the test on BGC-823; 36.4 µM in the test on MCF7; greater than 50 µM in the test on DU-145; greater than 50 µM in the test with PC-3; 41.5 µM with HepG2.

In the case of `COC(C)(C)CCC[C@@](C)(O)[C@H]1CC[C@]2(C)[C@@H]1[C@H](OC(=O)/C=C/c1ccccc1)C[C@@H]1[C@@]3(C)CC[C@H](OC(=O)/C=C/c4ccccc4)C(C)(C)[C@@H]3CC[C@]12C`, the IC50 in the test on BGC-823, in the test with MCF7, in the test on DU-145, in the test on PC-3 and in the test on HepG2 was greater than 50 µM in each case.

In the case of `COC(C)(C)CCC[C@@](C)(O)[C@H]1CC[C@]2(C)[C@@H]1[C@H](O)C[C@@H]1[C@@]3(C)CC[C@H](OC(=O)c4cc(F)ccc4Br)C(C)(C)[C@@H]3CC[C@]12C`, the IC50 with BGC-823 was found to be 34.4 µM; in the test with MCF7, 15.6 µM; in the test on DU-145 it was 28.7 µM; in the test on PC-3 it was 39.9 µM; with HepG2 it was 18.9 µM.

`COC(C)(C)CCC[C@@](C)(O)[C@H]1CC[C@]2(C)[C@@H]1[C@H](O)C[C@@H]1[C@@]3(C)CC[C@H](OC(=O)c4cc(I)ccc4Cl)C(C)(C)[C@@H]3CC[C@]12C`: the IC50 in the test on BGC-823 was greater than 50 µM; in the test with MCF7 it was 29.4 µM; in the test on DU-145, 30.7 µM; in the test on PC-3, greater than 50 µM; in the test on HepG2 it was 28.8 µM.

With `COC(C)(C)CCC[C@@](C)(O)[C@H]1CC[C@]2(C)[C@@H]1[C@H](O)C[C@@H]1[C@@]3(C)CC[C@H](OC(=O)/C=C/c4ccccc4)C(C)(C)[C@@H]3CC[C@]12C`, the IC50 with BGC-823 stood at 28.7 µM; in the test with MCF7, 35 µM; with DU-145 it was 40.1 µM; with PC-3, 37.2 µM; in the test with HepG2, 26.4 µM.

As to `COC(C)(C)CCC[C@@](C)(O)[C@H]1CC[C@]2(C)[C@@H]1[C@H](O)C[C@@H]1[C@@]3(C)CC[C@H](OC(=O)c4ccc([N+](=O)[O-])cc4)C(C)(C)[C@@H]3CC[C@]12C`, the IC50 in the test with BGC-823 came out at 17.4 µM; in the test with MCF7 it was 25.3 µM; with DU-145 it was 19.2 µM; in the test with PC-3, 16.7 µM; with HepG2, 20.6 µM.

As for `COC(C)(C)CCC[C@@](C)(O)[C@H]1CC[C@]2(C)[C@@H]1[C@H](O)C[C@@H]1[C@@]3(C)CC[C@H](OC(=O)/C=C/c4ccc(F)cc4)C(C)(C)[C@@H]3CC[C@]12C`, the 50% inhibitory concentration (IC50) in the test on BGC-823 came out at 18 µM; in the test on MCF7, 23.7 µM; in the test on DU-145, 20.6 µM; in the test on PC-3, 17.6 µM; in the test with HepG2, 26.9 µM.

Turning to `COC(C)(C)CCC[C@@](C)(O)[C@H]1CC[C@]2(C)[C@@H]1[C@H](O)C[C@@H]1[C@@]3(C)CC[C@H](OC(=O)c4ccccc4Cl)C(C)(C)[C@@H]3CC[C@]12C`, the IC50 with BGC-823 amounted to 28.1 µM; in the test with MCF7, 15.6 µM; in the test on DU-145, 18.5 µM; in the test on PC-3, 22 µM; in the test on HepG2, 19.2 µM.

As to `COC(C)(C)CCC[C@@](C)(O)[C@H]1CC[C@]2(C)[C@@H]1[C@H](O)C[C@@H]1[C@@]3(C)CC[C@H](OC(=O)c4ccc(F)cc4F)C(C)(C)[C@@H]3CC[C@]12C`, the IC50 was 7.1 µM with BGC-823; 4.3 µM with MCF7; 6.7 µM in the test with DU-145; 11.4 µM with PC-3; 5.8 µM in the test on HepG2.

In the case of `COC(C)(C)CCC[C@@](C)(O)[C@H]1CC[C@]2(C)[C@@H]1[C@H](OC(=O)c1ccccc1)C[C@@H]1[C@@]3(C)CC[C@H](OC(=O)c4ccccc4)C(C)(C)[C@@H]3CC[C@]12C`, the IC50 in the test with BGC-823, in the test with MCF7, with DU-145, with PC-3 and in the test on HepG2 was greater than 50 µM each time.

Take `COC(C)(C)CCC[C@@](C)(O)[C@H]1CC[C@]2(C)[C@@H]1[C@H](OC(=O)c1ccccc1)C[C@@H]1[C@@]3(C)CC[C@H](O)C(C)(C)[C@@H]3CC[C@]12C`: the IC50 in the test on BGC-823, with MCF7, with DU-145, in the test with PC-3 and in the test with HepG2 was greater than 50 µM each time.

Regarding `COC(C)(C)CCC[C@@](C)(O)[C@H]1CC[C@]2(C)[C@@H]1[C@H](OC(=O)c1ccccc1[N+](=O)[O-])C[C@@H]1[C@@]3(C)CC[C@H](OC(=O)c4ccccc4[N+](=O)[O-])C(C)(C)[C@@H]3CC[C@]12C`, the IC50 is 48.6 µM with BGC-823; 37.2 µM with MCF7; 29.7 µM in the test with DU-145; greater than 50 µM in the test with PC-3; greater than 50 µM in the test on HepG2.

With `COC(C)(C)CCC[C@@](C)(O)[C@H]1CC[C@]2(C)[C@@H]1[C@H](OC(=O)/C=C/c1ccc(F)cc1)C[C@@H]1[C@@]3(C)CC[C@H](OC(=O)/C=C/c4ccc(F)cc4)C(C)(C)[C@@H]3CC[C@]12C`, the IC50 was greater than 50 µM in the test with BGC-823; greater than 50 µM in the test on MCF7; 34.6 µM in the test with DU-145; greater than 50 µM in the test on PC-3; 41.8 µM with HepG2.

For `COC(C)(C)CCC[C@@](C)(O)[C@H]1CC[C@]2(C)[C@@H]1[C@H](O)C[C@@H]1[C@@]3(C)CC[C@H](OC(=O)c4cccc(F)c4)C(C)(C)[C@@H]3CC[C@]12C`, the IC50 with BGC-823 was 5.3 µM; in the test on MCF7, 6.4 µM; with DU-145 it was 8.6 µM; in the test with PC-3, 13.5 µM; in the test with HepG2, 10.3 µM.

As to `COC(C)(C)CCC[C@@](C)(O)[C@H]1CC[C@]2(C)[C@@H]1[C@H](OC(=O)c1ccc(I)cc1)C[C@@H]1[C@@]3(C)CC[C@H](O)C(C)(C)[C@@H]3CC[C@]12C`, the half-inhibitory concentration (IC50) in the test on BGC-823, in the test with MCF7, with DU-145, in the test on PC-3 and in the test with HepG2 was greater than 50 µM throughout.

Regarding `COC(C)(C)CCC[C@@](C)(O)[C@H]1CC[C@]2(C)[C@@H]1[C@H](OC(=O)/C=C/c1ccccc1)C[C@@H]1[C@@]3(C)CC[C@H](O)C(C)(C)[C@@H]3CC[C@]12C`, the IC50 with BGC-823, with MCF7, with DU-145, in the test on PC-3 and in the test with HepG2 was greater than 50 µM in each case.

Consider `COC(C)(C)CCC[C@@](C)(O)[C@H]1CC[C@]2(C)[C@@H]1[C@H](O)C[C@@H]1[C@@]3(C)CC[C@H](OC(=O)c4cc(C)cc(C)c4)C(C)(C)[C@@H]3CC[C@]12C`, for which the IC50 in the test with BGC-823 is greater than 50 µM; in the test with MCF7 it was 48.2 µM; in the test with DU-145, greater than 50 µM; in the test with PC-3, greater than 50 µM; in the test on HepG2 it was greater than 50 µM.

In the case of `COC(C)(C)CCC[C@@](C)(O)[C@H]1CC[C@]2(C)[C@@H]1[C@H](OC(=O)c1ccc([N+](=O)[O-])cc1)C[C@@H]1[C@@]3(C)CC[C@H](OC(=O)c4ccc([N+](=O)[O-])cc4)C(C)(C)[C@@H]3CC[C@]12C`, the IC50 with BGC-823, in the test with MCF7, with DU-145, with PC-3 and in the test with HepG2 was greater than 50 µM throughout.

For `COC(C)(C)CCC[C@@](C)(O)[C@H]1CC[C@]2(C)[C@@H]1[C@H](O)C[C@@H]1[C@@]3(C)CC[C@H](OC(=O)c4ccc(I)cc4)C(C)(C)[C@@H]3CC[C@]12C`, the IC50 with BGC-823 is greater than 50 µM; in the test on MCF7, 46.3 µM; with DU-145 it was 31.8 µM; in the test with PC-3, greater than 50 µM; in the test with HepG2, greater than 50 µM.

Regarding `COC(C)(C)CCC[C@@](C)(O)[C@H]1CC[C@]2(C)[C@@H]1[C@H](O)C[C@@H]1[C@@]3(C)CC[C@H](OC(=O)c4cccc(C)c4)C(C)(C)[C@@H]3CC[C@]12C`, the IC50 in the test with BGC-823 is greater than 50 µM; in the test with MCF7 it was greater than 50 µM; in the test with DU-145 it was 46.2 µM; in the test on PC-3, greater than 50 µM; in the test on HepG2 it was 38.4 µM.

`COC(C)(C)CCC[C@@](C)(O)[C@H]1CC[C@]2(C)[C@@H]1[C@H](O)C[C@@H]1[C@@]3(C)CC[C@H](OC(=O)c4cc([N+](=O)[O-])cc([N+](=O)[O-])c4)C(C)(C)[C@@H]3CC[C@]12C`: the IC50 with BGC-823 is 9.5 µM; with MCF7, 11.7 µM; in the test on DU-145, 13.4 µM; in the test with PC-3, 7.5 µM; with HepG2 it was 14.5 µM.

For orientation: IC50 means the concentration needed to halve the response being measured. Read a low IC50 as greater potency in that assay.
